Measurements published in US6476026B1, “Compounds and compositions as protease inhibitors” (Axys Pharmaceuticals, Inc., priority 1999, dated 2002).

`N#CCNC(=O)[C@H]1CCCN1C(=O)OCc1ccccc1` [Compound 50, benzyl 2R-cyanomethylcarbamoylpyrrolidine-1-carboxylate] gave a melting point of 135 to 136 °C.
